Data reported in patent US20230159453A1 (COCRYSTAL PHARMA, INC., priority 2020, published 2023).
Like-named read-outs stand apart in the source and are kept apart here.

Target: SARS2 protease (Severe acute respiratory syndrome coronavirus 2, UniProt P0DTD1)
Assay: SARS-CoV-2 protease inhibition assay (SARS2 FRET protease assay)
Format: biochemical
[1] = SARS-CoV-2 protease 25 nM, FRET, peptide substrate 1.3 μM, 30 minutes at 30° C., compounds 20 μM to 1.0 nM, read-out: IC50

Row | SMILES | IC50 [1] [µM] | IC50 (IC50 (μM)) [µM]
1 | CC(C)(c1cccc(Cl)c1)C(OC(=O)N[C@@H](CC1CCCCC1)C(=O)N[C@@H](C[C@@H]1CCNC1=O)C(=O)C(N)=O)c1ccccc1 (stereo partly drawn) [Compound C113, 2-(3-Chlorophenyl)-2-methyl-1-phenylpropyl ((S)-1-(((S)-4-amino-3,4-dioxo-1-((S)-2-oxopyrrolidin-3-yl)butan-2-yl)amino)-3-cyclohexyl-1-oxopropan-2-yl) carbamate] | 0.133 | 
2 | CC(C)(c1cccc(Cl)c1)[C@H](OC(=O)N[C@@H](CC1CCCCC1)C(=O)N[C@@H](C[C@@H]1CCNC1=O)C(=O)C(N)=O)c1cccc(F)c1 [Compound C183] | 0.249 | 
3 | CCCC1CCC(OC(=O)NC(CC(C)C)C(=O)NC(CC2CC3(CCN(C(C)=O)CC3)NC2=O)C(O)P(=O)(OCC)OCC)CC1 (stereo in doubt) [Compound C91, 4-Propylcyclohexyl ((2R)-1-((3-(8-acetyl-2-oxo-1,8-diazaspiro[4.5]decan-3-yl)-1-(diethoxyphosphoryl)-1-hydroxypropan-2-yl)amino)-4-methyl-1-oxopentan-2-yl)carbamate] | > 20 | 
4 | CCOP(=O)(OCC)C(O)[C@H](CC1CCNC1=O)NC(=O)[C@H](Cc1ccccc1)NC(=O)OCc1cccc(Cl)c1 (stereo partly shown) [Compound C36] | 2.5 | 
5 | O=C(N[C@@H](CC1CCCCC1)C(=O)NC(CC1CC2(CCOCC2)NC1=O)C(=O)C(=O)NC1CC1)OC1CCCC1Cc1cccc(Cl)c1 (stereo partly drawn) [Compound C206, 2-(3-Chlorobenzyl)cyclopentyl ((2S)-3-cyclohexyl-1-((4-(cyclopropylamino)-3,4-dioxo-1-(2-oxo-8-oxa-1-azaspiro[4.5]decan-3-yl)butan-2-yl)amino)-1-oxopropan-2-yl)carbamate] | 5.11 | 
6 | CC(C)C[C@H](NC(=O)OC(c1ccccc1)C(C)(C)c1cccc(Cl)c1)C(=O)N[C@@H](C[C@@H]1CCNC1=O)C(=O)C(=O)NCCN(C)C (stereo partly shown) [Compound C260] | 1.14 | 
7 | CC(C)C[C@H](NC(=O)OC1CCCC1Cc1ccccc1)C(=O)N[C@@H](C[C@@H]1CCNC1=O)C(=O)CCl (stereo partly drawn) [Compound C199, 2-Benzylcyclopentyl ((S)-1-(((S)-4-chloro-3-oxo-1-((S)-2-oxopyrrolidin-3-yl)butan-2-yl)amino)-4-methyl-1-oxopentan-2-yl)carbamate] |  | 0.196
8 | Cc1cccc(C(OC(=O)N[C@@H](CC2CCCCC2)C(=O)N[C@H](C=O)C[C@@H]2CCNC2=O)C(C)(C)c2cccc(Cl)c2)c1 (stereo partly drawn) [Compound C136, 2-(3-Chlorophenyl)-2-methyl-1-(m-tolyl) propyl ((S)-3-cyclohexyl-1-oxo-1-(((S)-1-oxo-3-((S)-2-oxopyrrolidin-3-yl)propan-2-yl)amino)propan-2-yl) carbamate] | 0.00045 | 
9 | CC(C)C[C@H](NC(=O)OCC(C)(C)c1cccc(Cl)c1)C(=O)N[C@@H](C[C@@H]1CCNC1=O)C(O)S(=O)(=O)O (stereo partly drawn) [Compound C72, Sodium (2S)-2-((S)-2-(((2-(3-chlorophenyl)-2-methylpropoxy)carbonyl)amino)-4-methylpentanamido)-1-hydroxy-3-((S)-2-oxopyrrolidin-3-yl)propane-1-sulfonate] | 0.01 | 
10 | CC(C)C[C@H](NC(=O)OC(c1ccccc1)C(C)(C)c1cccc(Cl)c1)C(=O)NC(CC1CC(C)(C)NC1=O)C(=O)C(N)=O (stereo partly drawn) [Compound C218, 2-(3-Chlorophenyl)-2-methyl-1-phenylpropyl ((2S)-1-((4-amino-1-(5,5-dimethyl-2-oxopyrrolidin-3-yl)-3,4-dioxobutan-2-yl)amino)-4-methyl-1-oxopentan-2-yl)carbamate] | 1.85 | 
11 | CC(C)C[C@H](NC(=O)OC1(Cc2ccccc2)CC1)C(=O)N[C@@H](C[C@@H]1CCNC1=O)C(O)S(=O)(=O)O (stereo partly drawn) [Compound C48, (2S)-2-((S)-2-(((1-Benzylcyclopropoxy)carbonyl)amino)-4-methylpentanamido)-1-hydroxy-3-((S)-2-oxopyrrolidin-3-yl) propane-1-sulfonate] | 0.241 | 
12 | CC(C)C[C@H](NC(=O)OC1CCN(C(=O)OC(C)(C)C)c2ccccc21)C(=O)N[C@H](C=O)C[C@@H]1CCNC1=O (stereo partly drawn) [Compound C59, Tert-butyl 4-((((S)-4-methyl-1-oxo-1-(((S)-1-oxo-3-((S)-2-oxopyrrolidin-3-yl)propan-2-yl)amino)pentan-2-yl)carbamoyl)oxy)-3,4-dihydroquinoline-1(2H)-carboxylate] | 0.1 | 
13 | CS(=O)(=O)N1CCC2(CC1)CC(CC(C=O)NC(=O)[C@H](CC1CCCCC1)NC(=O)OC1CCCC1Cc1cccc(Cl)c1)C(=O)N2 (stereo partly drawn) [Compound C189, 2-(3-Chlorobenzyl)cyclopentyl ((2S)-3-cyclohexyl-1-((1-(8-(methylsulfonyl)-2-oxo-1,8-diazaspiro[4.5]decan-3-yl)-3-oxopropan-2-yl)amino)-1-oxopropan-2-yl)carbamate] | 0.34 | 
14 | COc1cccc2[nH]c(C(=O)N[C@@H](CC(C)C)C(=O)NC(CC3CC4(CCCCC4)NC3=O)C(=O)CCl)cc12 (stereo partly drawn) [Compound C227, N-((2S)-1-((4-chloro-3-oxo-1-(2-oxo-1-azaspiro[4.5]decan-3-yl)butan-2-yl)amino)-4-methyl-1-oxopentan-2-yl)-4-methoxy-1H-indole-2-carboxamide] | 0.059 | 
15 | O=C(N[C@@H](CC1CCCCC1)C(=O)N[C@@H](C[C@@H]1CC2(CCCC2)NC1=O)C(=O)C(=O)NC1CC1)OC1CCCC1Cc1cccc(Cl)c1 (stereo partly drawn) [Compound C159, 2-(3-Chlorobenzyl)cyclopentyl ((2S)-3-cyclohexyl-1-((4-(cyclopropylamino)-3,4-dioxo-1-(2-oxo-1-azaspiro[4.4]nonan-3-yl)butan-2-yl)amino)-1-oxopropan-2-yl)carbamate] | 3.49 | 
16 | CCOP(=O)(OCC)C(O)[C@H](CCC(=O)N(C)C1(Cc2ccccc2)CC1)NC(=O)[C@H](CC1CCCCC1)NC(=O)OCc1cccc(Cl)c1 (stereo partly drawn) [Compound C5, 3-Chlorobenzyl ((2S)-1-(((2S)-5-((1-benzylcyclopropyl)(methyl)amino)-1-(diethoxyphosphoryl)-1-hydroxy-5-oxopentan-2-yl)amino)-3-cyclohexyl-1-oxopropan-2-yl)carbamate] | > 200 | 
17 | CCOP(=O)(OCC)C(O)[C@H](CCC(=O)N(C)C)NC(=O)C(CC(C)(C)C)NC(=O)OCc1cccc(Cl)c1 (stereo partly drawn) [Compound C2, 3-Chlorobenzyl (1-(((2S)-1-(diethoxyphosphoryl)-5-(dimethylamino)-1-hydroxy-5-oxopentan-2-yl)amino)-4,4-dimethyl-1-oxopentan-2-yl)carbamate] | 71 | 
18 | CC(C)C[C@H](NC(=O)OC(C)Cc1ccccc1)C(=O)N[C@@H](C[C@@H]1CCNC1=O)C(O)S(=O)(=O)O (stereo partly drawn) [Compound C50, (2S)-1-Hydroxy-2-((2S)-4-methyl-2-((((1-phenylpropan-2-yl)oxy)carbonyl)amino)pentanamido)-3-((S)-2-oxopyrrolidin-3-yl)propane-1-sulfonate] | 0.119 | 
19 | CC(C)(c1cccc(Cl)c1)C(OC(=O)N[C@@H](CC1CCCCC1)C(=O)N[C@@H](C[C@@H]1CCNC1=O)C(=O)C(N)=O)c1ccc2ccccc2c1 (stereo partly drawn) [Compound C122, 2-(3-Chlorophenyl)-2-methyl-1-(naphthalen-2-yl)propyl ((S)-1-(((S)-4-amino-3,4-dioxo-1-((S)-2-oxopyrrolidin-3-yl)butan-2-yl)amino)-3-cyclohexyl-1-oxopropan-2-yl)carbamate] | 0.456 | 
